These results are taken from paper PMC3792221 (Biomolecules & Therapeutics, 2012).

Data set [1] deals with T1, MAO-B (rat liver mitochondrial MAO) (Rattus norvegicus, UniProt P19643).
T1 sequence (P19643 1-520): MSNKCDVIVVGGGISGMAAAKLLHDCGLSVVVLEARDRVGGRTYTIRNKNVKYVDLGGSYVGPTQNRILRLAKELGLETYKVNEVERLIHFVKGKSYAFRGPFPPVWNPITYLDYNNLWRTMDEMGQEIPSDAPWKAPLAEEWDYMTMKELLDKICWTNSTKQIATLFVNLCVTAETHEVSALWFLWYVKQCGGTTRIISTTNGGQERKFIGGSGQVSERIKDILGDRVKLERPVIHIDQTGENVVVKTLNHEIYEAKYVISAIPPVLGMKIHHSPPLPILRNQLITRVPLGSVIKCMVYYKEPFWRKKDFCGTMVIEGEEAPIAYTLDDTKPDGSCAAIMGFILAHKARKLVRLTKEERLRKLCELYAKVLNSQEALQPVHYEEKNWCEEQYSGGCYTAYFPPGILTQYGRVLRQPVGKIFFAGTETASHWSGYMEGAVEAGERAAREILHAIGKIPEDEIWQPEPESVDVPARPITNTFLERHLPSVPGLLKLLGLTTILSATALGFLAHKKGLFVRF
The experiment in a line: MAO-B inhibition assay in vitro. It is filed as biochemical.

Data set [2] addresses T2, MAO-A (rat brain mitochondrial MAO) (Rattus norvegicus, UniProt P21396).
T2 sequence (P21396 1-526): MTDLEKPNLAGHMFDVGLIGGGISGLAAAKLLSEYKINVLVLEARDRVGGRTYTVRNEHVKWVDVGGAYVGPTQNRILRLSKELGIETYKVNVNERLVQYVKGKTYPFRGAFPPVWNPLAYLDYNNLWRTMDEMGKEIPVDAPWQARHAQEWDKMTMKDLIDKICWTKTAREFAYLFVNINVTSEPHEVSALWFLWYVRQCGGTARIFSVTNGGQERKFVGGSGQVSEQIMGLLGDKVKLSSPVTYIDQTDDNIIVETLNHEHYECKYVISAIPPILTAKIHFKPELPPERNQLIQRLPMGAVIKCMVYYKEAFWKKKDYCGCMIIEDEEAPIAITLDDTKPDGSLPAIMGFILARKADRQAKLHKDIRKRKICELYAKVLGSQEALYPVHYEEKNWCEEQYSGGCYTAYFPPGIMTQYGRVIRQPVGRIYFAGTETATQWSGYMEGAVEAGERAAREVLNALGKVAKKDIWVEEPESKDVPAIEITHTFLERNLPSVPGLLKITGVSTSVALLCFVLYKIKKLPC
The experiment in a line: MAO-A inhibition assay in vitro. It is filed as biochemical.

The next data set relates to neural stem cells. Particulars: ref Guan et al., 2009; cited from earlier work.
Another data set addresses T3, bovine adrenal DBH (Bos taurus, UniProt P15101).
T3 sequence (P15101 1-610): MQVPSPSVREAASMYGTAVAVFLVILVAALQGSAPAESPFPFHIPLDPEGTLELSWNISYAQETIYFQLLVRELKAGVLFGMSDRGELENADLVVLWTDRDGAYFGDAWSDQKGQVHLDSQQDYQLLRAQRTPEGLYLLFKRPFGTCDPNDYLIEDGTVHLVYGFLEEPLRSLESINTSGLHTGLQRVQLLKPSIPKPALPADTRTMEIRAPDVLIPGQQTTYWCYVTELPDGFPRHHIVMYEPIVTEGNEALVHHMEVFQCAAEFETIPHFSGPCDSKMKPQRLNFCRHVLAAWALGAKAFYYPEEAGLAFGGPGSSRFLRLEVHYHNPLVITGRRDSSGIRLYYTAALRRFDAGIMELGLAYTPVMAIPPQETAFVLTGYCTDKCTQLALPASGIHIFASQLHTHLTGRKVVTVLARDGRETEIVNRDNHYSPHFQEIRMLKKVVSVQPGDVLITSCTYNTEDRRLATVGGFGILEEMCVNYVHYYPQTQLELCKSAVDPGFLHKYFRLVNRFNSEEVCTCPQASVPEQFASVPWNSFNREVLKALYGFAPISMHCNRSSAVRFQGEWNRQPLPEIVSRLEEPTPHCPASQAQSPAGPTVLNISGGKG
The experiment in a line: DBH inhibition assay in vitro. The class given is biochemical.

For data set [3] the following is noted: isolated geniposide; ref Hou et al., 2008; Lu et al., 2011; cited from earlier work.
Where [4] appears, read: read-out: MAO-B inhibitory activity.
Where [5] appears, read: IC50 value MAO-A, Table 1, 1 mM serotonin substrate.
[6] abbreviates: read-out: MAO-A inhibitory activity.
Where [7] appears, read: IC50 value DBH, Table 1, 120 mM tyramine substrate.
The mark [8] stands for this setting: read-out: DBH inhibitory activity.

Broadly, the IC50 is the concentration that gives 50% inhibition. Low readings indicate higher potency, high ones lower potency. In the case of `O=C(O)c1ccc(O)c(O)c1` [Compound 1, protocatechuic acid], the IC50 turned out to be 300 µM in data set [1], 2410 µM in data set [2] (IC50 MAO-A (abstract)), 2410 µM in data set [2] (setting [5]) and 334 µM on bovine adrenal DBH (setting [7]). Besides, in data set [1] (from Table 1), the “Specific activity on MAO-B relative to that on MAO-A” value is reported as “about 8 times”. Also, the results for the inhibition at 50 µg/mL (in data set [1] (setting [4]); in data set [2] (setting [6]); on bovine adrenal DBH (setting [8])) were 50.4 ± 5.9%, 7.3 ± 2.6% and 49.2 ± 3.1%, respectively. The inhibition at 100 µg/mL in data set [1] (setting [4]) came to 71.6 ± 9.3%; in data set [2] (setting [6]), 12.8 ± 4.8%; at bovine adrenal DBH (setting [8]) it was 64.1 ± 6.8%. Moreover, the inhibition at 500 µg/mL was 108 ± 1.3% in data set [1] (setting [4]), 67.4 ± 5.2% in data set [2] (setting [6]) and 97.2 ± 2% at bovine adrenal DBH (setting [8]). The “Apoptosis of neural stem cells” value with neural stem cells is given as “inhibit apoptosis”. The “Proliferation of neural stem cells” value in the data set on neural stem cells was “increase proliferation”.

Turning to `COC(=O)C1=CO[C@@H](O[C@@H]2O[C@H](CO)[C@@H](O)[C@H](O)[C@H]2O)[C@@H]2C(CO)=CC[C@H]12` [Compound 2, geniposide], the Absorption percentage entry in data set [3] is given as “very low”. In data set [1], this compound showed an IC50 of 223 µM. In data set [1] (setting [4]), the inhibition at 4 µg/mL turned out to be 9.2 ± 1.2%, the inhibition at 20 µg/mL turned out to be 16 ± 0.6%, the inhibition at 50 µg/mL is 42.8 ± 2.2% and the inhibition at 100 µg/mL came out at 52.2 ± 1.5%. The same compound came in with a half-maximal inhibitory concentration (IC50) in data set [2] (setting [5]) of over 12900 µM. Further, the half-maximal inhibitory concentration (IC50) at bovine adrenal DBH (setting [7]) is over 12900 µM.

For `C[C@H]1[C@H](C)CC[C@]2(C(=O)O)CC[C@]3(C)C(=CC[C@@H]4[C@@]5(C)CC[C@H](O)C(C)(C)[C@@H]5CC[C@]43C)[C@H]12` [Compound 5, ursolic acid], the IC50 in data set [1] was 780 µM; in data set [2] (setting [5]), over 11000 µM; against bovine adrenal DBH (IC50 DBH), 215 µM; against bovine adrenal DBH (setting [7]), 214 µM. Besides, the inhibition at 50 µg/mL in data set [1] (setting [4]) is 17.1 ± 1.1%; at bovine adrenal DBH (setting [8]), 33.2 ± 6.9%. Besides, the inhibition at 100 µg/mL amounted to 28.7 ± 8% in data set [1] (setting [4]) and 51.2 ± 5.9% at bovine adrenal DBH (setting [8]). In addition, the “MAO-A inhibition (in words)” value in data set [2] is listed as “no inhibition”. Further, the inhibition at 2 µg/mL on bovine adrenal DBH (setting [8]) is 18.2 ± 7.6%. Besides, the inhibition at 10 µg/mL on bovine adrenal DBH (setting [8]) was 20.8 ± 10.7%.
